Series [1] relates to NET. The arrangement: method as in PMID 31265842. The following applies: cited from earlier work.
In series [2] the target is NET (Homo sapiens, UniProt P23975). The experiment in a line: Uptake into HEK293 cells overexpressing NET (uptake ratio and concentration-dependent uptake). The following applies: intrinsic clearance, quotient of vmax and Km.
Series [3] concerns the target DAT (Homo sapiens, UniProt Q01959). The experiment in a line: Uptake into HEK293 cells overexpressing DAT (uptake ratio and concentration-dependent uptake). The following applies: for Clint ± SEM: intrinsic clearance, quotient of vmax and Km.
The next series addresses SERT (Homo sapiens, UniProt P31645). The series can be described thus: Uptake into HEK293 cells overexpressing SERT (uptake ratio and concentration-dependent uptake). The following applies: for Clint ± SEM: SERT, intrinsic clearance, quotient of vmax and Km.
Series [4] has as its system DAT. The arrangement: method as in PMID 31265842. The following applies: cited from earlier work.
In the next series the target is T1, OCT1 (Homo sapiens, UniProt O15245).
T1 sequence (O15245 1-554): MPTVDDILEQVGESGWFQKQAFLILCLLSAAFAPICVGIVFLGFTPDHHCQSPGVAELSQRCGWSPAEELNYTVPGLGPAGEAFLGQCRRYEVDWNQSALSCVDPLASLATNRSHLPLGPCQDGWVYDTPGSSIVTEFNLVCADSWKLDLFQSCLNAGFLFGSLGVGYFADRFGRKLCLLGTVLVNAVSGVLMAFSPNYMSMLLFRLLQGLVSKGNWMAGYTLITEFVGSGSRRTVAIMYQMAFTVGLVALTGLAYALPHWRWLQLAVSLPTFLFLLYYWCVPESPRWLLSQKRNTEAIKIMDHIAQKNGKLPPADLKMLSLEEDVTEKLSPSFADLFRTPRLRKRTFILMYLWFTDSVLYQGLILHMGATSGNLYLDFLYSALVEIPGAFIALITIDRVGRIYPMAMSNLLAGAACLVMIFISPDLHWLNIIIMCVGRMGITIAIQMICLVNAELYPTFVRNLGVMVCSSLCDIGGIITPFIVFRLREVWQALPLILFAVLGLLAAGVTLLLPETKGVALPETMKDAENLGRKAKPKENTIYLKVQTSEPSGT
The series can be described thus: Uptake into HEK293 cells overexpressing OCT1 (uptake ratio and concentration-dependent uptake). The following applies: intrinsic clearance, quotient of vmax and Km.

Another series has as its target T2, OCT3 (Homo sapiens, UniProt O75751).
T2 sequence (O75751 1-556): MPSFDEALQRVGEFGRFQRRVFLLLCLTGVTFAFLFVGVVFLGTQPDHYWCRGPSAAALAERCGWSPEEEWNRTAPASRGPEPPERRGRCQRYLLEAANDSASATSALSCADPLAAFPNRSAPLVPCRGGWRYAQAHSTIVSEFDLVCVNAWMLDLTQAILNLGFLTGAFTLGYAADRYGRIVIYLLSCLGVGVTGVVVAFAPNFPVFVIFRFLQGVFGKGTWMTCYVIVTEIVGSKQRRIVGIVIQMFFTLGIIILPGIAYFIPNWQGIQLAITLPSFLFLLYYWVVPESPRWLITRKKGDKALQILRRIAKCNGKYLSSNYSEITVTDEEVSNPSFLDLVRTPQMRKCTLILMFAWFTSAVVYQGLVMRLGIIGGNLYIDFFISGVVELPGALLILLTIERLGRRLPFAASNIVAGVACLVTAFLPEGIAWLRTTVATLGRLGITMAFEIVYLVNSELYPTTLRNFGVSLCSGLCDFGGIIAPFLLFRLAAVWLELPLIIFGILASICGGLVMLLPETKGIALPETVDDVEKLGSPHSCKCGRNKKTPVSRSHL
The series can be described thus: Uptake into HEK293 cells overexpressing OCT3 (uptake ratio and concentration-dependent uptake). The following applies: intrinsic clearance, quotient of vmax and Km.

For the next series, the target named is T3, OCT2 (Homo sapiens, UniProt O15244).
T3 sequence (O15244 1-555): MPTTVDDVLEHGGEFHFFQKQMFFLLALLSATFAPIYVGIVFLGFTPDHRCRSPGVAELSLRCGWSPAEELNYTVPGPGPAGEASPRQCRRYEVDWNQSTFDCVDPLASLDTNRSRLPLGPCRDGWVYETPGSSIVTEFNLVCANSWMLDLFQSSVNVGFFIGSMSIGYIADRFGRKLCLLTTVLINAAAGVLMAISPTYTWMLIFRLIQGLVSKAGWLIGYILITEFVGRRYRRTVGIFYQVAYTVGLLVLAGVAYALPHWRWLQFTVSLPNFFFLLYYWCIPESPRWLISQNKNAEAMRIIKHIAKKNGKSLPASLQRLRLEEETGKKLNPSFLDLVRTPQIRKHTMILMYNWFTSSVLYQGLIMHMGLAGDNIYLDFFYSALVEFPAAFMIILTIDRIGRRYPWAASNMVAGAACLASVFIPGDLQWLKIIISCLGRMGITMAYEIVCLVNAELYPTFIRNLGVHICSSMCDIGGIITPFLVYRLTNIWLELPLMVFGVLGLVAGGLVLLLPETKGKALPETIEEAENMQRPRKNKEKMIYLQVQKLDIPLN
The experiment in a line: Uptake into HEK293 cells overexpressing OCT2 (uptake ratio and concentration-dependent uptake). The following applies: for Clint ± SEM: intrinsic clearance, quotient of vmax and Km.

The subject of another series is NCCc1c[nH]c2ccccc12. The series can be described thus: cells, lysate or membranes. The following applies: other: SERT; concentration-dependent net uptake, Michaelis–Menten; pH 7.4.
Series [5] relates to CN[C@@H]1CCc2[nH]c3ccc(C(N)=O)cc3c2C1. The experiment in a line: cells, lysate or membranes. The following applies: other: SERT; concentration-dependent net uptake, Michaelis–Menten; pH 7.4.
Another series concerns N=C(N)NCc1cccc(I)c1. The series can be described thus: cells, lysate or membranes. The following applies: other: SERT; concentration-dependent net uptake, Michaelis–Menten; pH 7.4.
In another series the test system is CNCCc1c[nH]c2ccc(O)cc12. The series can be described thus: cells, lysate or membranes. The following applies: pH 7.4.
Substrate in series [6]: NCCc1c[nH]c2ccc(O)cc12
The series can be described thus: cells, lysate or membranes. The following applies: other: DAT; concentration-dependent net uptake, Michaelis–Menten; pH 7.4.

Substrate in series [7]: CNCCc1c[nH]c2ccc(O)cc12
The series can be described thus: cells, lysate or membranes. The following applies: other: DAT; concentration-dependent net uptake, Michaelis–Menten; pH 7.4.

Substrate in series [8]: NCCc1ccccc1
The series can be described thus: cells, lysate or membranes. The following applies: other: DAT; concentration-dependent net uptake, Michaelis–Menten; pH 7.4.

Substrate in series [9]: N=C(N)NCc1cccc(I)c1
The experiment in a line: cells, lysate or membranes. The following applies: other: DAT; concentration-dependent net uptake, Michaelis–Menten; pH 7.4.

Substrate in series [10]: NCCc1ccc(O)c(O)c1
The series can be described thus: cells, lysate or membranes. The following applies: other: DAT; concentration-dependent net uptake, Michaelis–Menten; pH 7.4.

The mark [11] stands for this setting: concentration-dependent net uptake, Michaelis–Menten.
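Wherever Uptake Ratio by Transporter SERT is given: incubation at 37 °C, intracellular compound quantified by HPLC-MS/MS after cell lysis, uptake normalized to total protein measured by bicinchoninic acid assay.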
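Wherever Uptake Ratio by Transporter SERT is given: ratio of uptake in SERT cells over empty-vector control cells.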

NET (Homo sapiens, UniProt P23975), sequence (P23975 whole entry): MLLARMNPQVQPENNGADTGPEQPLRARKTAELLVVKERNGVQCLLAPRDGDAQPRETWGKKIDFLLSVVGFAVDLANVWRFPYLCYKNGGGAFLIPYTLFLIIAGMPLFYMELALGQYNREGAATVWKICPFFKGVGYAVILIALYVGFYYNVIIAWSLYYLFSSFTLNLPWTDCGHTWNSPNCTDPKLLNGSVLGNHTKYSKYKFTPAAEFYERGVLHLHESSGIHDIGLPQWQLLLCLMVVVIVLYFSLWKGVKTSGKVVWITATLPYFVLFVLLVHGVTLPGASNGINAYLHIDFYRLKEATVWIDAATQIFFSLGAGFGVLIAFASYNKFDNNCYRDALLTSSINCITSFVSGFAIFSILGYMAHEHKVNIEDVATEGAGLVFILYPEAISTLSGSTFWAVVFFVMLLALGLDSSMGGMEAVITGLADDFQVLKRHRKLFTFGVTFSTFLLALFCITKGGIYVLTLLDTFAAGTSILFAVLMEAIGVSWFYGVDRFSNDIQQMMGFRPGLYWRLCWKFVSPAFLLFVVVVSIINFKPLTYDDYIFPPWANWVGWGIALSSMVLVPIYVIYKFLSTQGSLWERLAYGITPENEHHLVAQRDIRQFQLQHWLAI
SERT, sequence (P31645 whole entry): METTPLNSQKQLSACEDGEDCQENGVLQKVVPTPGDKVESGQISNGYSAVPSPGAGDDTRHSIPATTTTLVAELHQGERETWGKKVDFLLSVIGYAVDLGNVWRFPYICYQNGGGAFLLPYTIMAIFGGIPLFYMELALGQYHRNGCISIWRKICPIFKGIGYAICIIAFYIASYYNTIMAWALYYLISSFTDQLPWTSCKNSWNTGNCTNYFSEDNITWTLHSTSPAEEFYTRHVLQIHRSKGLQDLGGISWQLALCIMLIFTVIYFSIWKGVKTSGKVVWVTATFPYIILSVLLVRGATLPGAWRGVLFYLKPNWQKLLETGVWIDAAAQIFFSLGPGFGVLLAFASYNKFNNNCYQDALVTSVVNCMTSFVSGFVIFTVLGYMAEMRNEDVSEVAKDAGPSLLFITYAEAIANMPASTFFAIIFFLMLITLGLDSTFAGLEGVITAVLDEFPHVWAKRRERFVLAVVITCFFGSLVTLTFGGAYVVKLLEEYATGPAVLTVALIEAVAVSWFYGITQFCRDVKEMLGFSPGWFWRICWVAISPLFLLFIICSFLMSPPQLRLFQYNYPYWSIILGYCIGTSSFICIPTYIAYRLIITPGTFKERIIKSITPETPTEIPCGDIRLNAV

As to `NCCc1ccccc1` [Phenylethylamine], the “NET inhibition IC50” value in the series with NET [1] is “low micromolar range”. Moreover, the “Clint ± SEM” value on NET [2] is 3.4 mL × g Protein^−1 × min^−1; on DAT [3] it was 2.1 mL × g Protein^−1 × min^−1. Moreover, on SERT, the “Uptake Ratio by Transporter SERT” value is reported as 1.71. The “DAT inhibition IC50” value with DAT [4] is “low micromolar range”.
Regarding `NCCc1c[nH]c2ccc(O)cc12` [Serotonin], the “Clint ± SEM” value on NET [2] is recorded as 18.83 mL × g Protein^−1 × min^−1; on DAT [3], 77.39 mL × g Protein^−1 × min^−1; at SERT, 256.9 mL × g Protein^−1 × min^−1; at OCT1, 21.91 mL × g Protein^−1 × min^−1; at OCT3 it was 1.17 mL × g Protein^−1 × min^−1; on OCT2, 46.04 mL × g Protein^−1 × min^−1. The “Vmax ± SEM” value at OCT2 (setting [11]) was 31,565 pmol × mg Protein^−1 × min^−1.
Take `NC(N)=NCc1cccc(I)c1` [mIBG, meta-iodobenzylguanidine, reference compound]: the “Clint ± SEM” value at NET [2] is 284 mL × g Protein^−1 × min^−1; on NET [2] (listed as meta-iodobenzylguanidine), 284.6 ± 84.2 mL × g Protein^−1 × min^−1; on DAT [3], 229 ± 33.8 mL × g Protein^−1 × min^−1; at SERT it was 38.2 ± 25.9 mL × g Protein^−1 × min^−1; on OCT1, 138 ± 38.5 mL × g Protein^−1 × min^−1; at OCT3 it was 161 ± 35.7 mL × g Protein^−1 × min^−1. Moreover, on OCT2, the “Clint ± SEM” value is 152 ± 34.1 mL × g Protein^−1 × min^−1. Moreover, on DAT [3] (setting [11]), the “Vmax ± SEM” value is reported as 2800 pmol × mg Protein^−1 × min^−1.
Take SERT (Homo sapiens): the Km in the series on NCCc1c[nH]c2ccccc12 was 29.0 µM; in [5], 26.51 µM; with N=C(N)NCc1cccc(I)c1, 11.2 ± 6.2 µM; with CNCCc1c[nH]c2ccc(O)cc12, 4.065 ± 1.829 µM. Further, the Vmax was 634.6 pmol × mg Protein^−1 × min^−1 with NCCc1c[nH]c2ccccc12, 1020 pmol × mg Protein^−1 × min^−1 in series [5], 0.000429 µmol/min/mg with N=C(N)NCc1cccc(I)c1 and 1373.0 pmol × mg Protein^−1 × min^−1 in the series on CNCCc1c[nH]c2ccc(O)cc12. Besides, in the series on N=C(N)NCc1cccc(I)c1, the Vmax/Km is 38.2 µL/min/mg.

B1: DAT (Homo sapiens) (protein)
chain: MSKSKCSVGLMSSVVAPAKEPNAVGPKEVELILVKEQNGVQLTSSTLTNPRQSPVEAQDRETWGKKIDFLLSVIGFAVDLANVWRFPYLCYKNGGGAFLVPYLLFMVIAGMPLFYMELALGQFNREGAAGVWKICPILKGVGFTVILISLYVGFFYNVIIAWALHYLFSSFTTELPWIHCNNSWNSPNCSDAHPGDSSGDSSGLNDTFGTTPAAEYFERGVLHLHQSHGIDDLGPPRWQLTACLVLVIVLLYFSLWKGVKTSGKVVWITATMPYVVLTALLLRGVTLPGAIDGIRAYLSVDFYRLCEASVWIDAATQVCFSLGVGFGVLIAFSSYNKFTNNCYRDAIVTTSINSLTSFSSGFVVFSFLGYMAQKHSVPIGDVAKDGPGLIFIIYPEAIATLPLSSAWAVVFFIMLLTLGIDSAMGGMESVITGLIDEFQLLHRHRELFTLFIVLATFLLSLFCVTNGGIYVFTLLDHFAAGTSILFGVLIEAIGVAWFYGVGQFSDDIQQMTGQRPSLYWRLCWKLVSPCFLLFVVVVSIVTFRPPHYGAYIFPDWANALGWVIATSSMAMVPIYAAYKFCSLPGSFREKLAYAIAPEKDRELVDRGEVRQFTLRHWLKV
For B1, the Km in series [6] came to 50.50 µM; in series [7] it was 43.82 ± 14.39 µM; in [8], 156 µM; in series [9] it was 12.2 ± 1.46 µM; in [10], 25.1 µM. In addition, the Vmax is 3908 pmol × mg Protein^−1 × min^−1 in [6]; 3560 pmol × mg Protein^−1 × min^−1 in series [7]; 325 pmol × mg Protein^−1 × min^−1 in series [8]; 0.0028 µmol/min/mg in [9]; 1977 pmol × mg Protein^−1 × min^−1 in [10]. In addition, in [9], the Vmax/Km was 229 µL/min/mg.

The Km is the concentration of substrate that gives half-maximal velocity. By Vmax is commonly meant the rate approached at saturating substrate.

Source of the values: publication PMC8657982, “Overlap and Specificity in the Substrate Spectra of Human Monoamine Transporters and Organic Cation Transporters 1, 2, and 3” (International Journal of Molecular Sciences, 2021).
